The values that follow come from US8030321B2, “Benzofuro- and benzothienopyrimidine modulators of the histamine H4 receptor” (Janssen Pharmaceutica, NV, priority 2006, dated 2011).

Structures can show the parent of a compound that is named as a salt.

In one test the target is T1, human histamine H4 receptor (Homo sapiens, UniProt Q9H3N8).
T1 construct: expressed in transfected cells; host or cells: SK-N-MC cells or COS7 cells, transiently transfected; cell membranes used
T1 sequence (Q9H3N8 whole entry): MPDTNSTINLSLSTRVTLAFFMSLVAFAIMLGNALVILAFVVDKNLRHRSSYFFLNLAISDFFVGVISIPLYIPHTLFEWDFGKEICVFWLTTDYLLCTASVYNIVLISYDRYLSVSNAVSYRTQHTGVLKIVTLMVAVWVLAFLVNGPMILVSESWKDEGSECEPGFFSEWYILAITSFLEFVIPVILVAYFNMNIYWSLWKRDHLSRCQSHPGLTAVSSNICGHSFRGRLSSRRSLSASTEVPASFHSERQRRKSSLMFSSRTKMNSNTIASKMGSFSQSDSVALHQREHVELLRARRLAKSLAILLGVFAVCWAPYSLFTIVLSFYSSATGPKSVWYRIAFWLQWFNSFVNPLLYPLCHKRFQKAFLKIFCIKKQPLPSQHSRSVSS
The experiment in a line: Binding Assay on Recombinant Human Histamine H4 Receptor.
Conditions: not given
How it is done: Binding Assay on Recombinant Human Histamine H4 Receptor
SK-N-MC cells or COS7 cells were transiently transfected with pH4R and grown in 150 cm^2 tissue culture dishes. Cells were washed with saline solution, scraped with a cell scraper and collected by centrifugation (1000 rpm, 5 min). Cell membranes were prepared by homogenization of the cell pellet in 20 mM Tris-HCl with a polytron tissue homogenizer for 10 sec at high speed. Homogenate was centrifuged at 1000 rpm for 5 min at 4° C. […] The final pellet was resuspended in 50 mM Tris-HCl. Cell membranes were incubated with ^3H-histamine (5-70 nM) in the presence or absence of excess histamine (10,000 nM). […] Membranes were harvested by rapid filtration over Whatman GF/C filters and washed 4 times with ice-cold 50 mM Tris HCl. Filters were then dried, mixed with scintillant and counted for radioactivity. SK-N-MC or COS7 cells expressing human histamine H4 receptor were used to measure the affinity of binding of other compounds and their ability to displace ^3H-ligand binding by incubating the above-described reaction in the presence of various concentrations of inhibitor or compound to be tested.
With `Nc1nc(N2C[C@@H]3C[C@H]2CN3)c2oc3ccc(Cl)cc3c2n1` [Example 11, (S,S)-8-Chloro-4-(2,5-diaza-bicyclo[2.2.1]hept-2-yl)-benzo[4,5]furo[3,2-d]pyrimidin-2-ylamine], the Ki is 25 nM.
On the same count and under the same terms, the figure for `Nc1nc(N2C[C@@H]3C[C@H]2CN3)c2sc3cc(Cl)ccc3c2n1` [Example 62, (S,S)-7-Chloro-4-(2,5-diaza-bicyclo[2.2.1]hept-2-yl)-benzo[4,5]thieno[3,2-d]pyrimidin-2-ylamine trifluoroacetic acid salt] is 880 nM.

The test is the same for the next values; noted with them: competition binding with 3H-histamine (5 nM), membranes of SK-N-MC or COS7 cells expressing human H4 receptor; Cheng-Prusoff, KD 5 nM; average of results obtained; read-out: Ki.
As for `Nc1nc(NCC2CNC2)c2oc3ccc(Cl)cc3c2n1` [Example 110, N^4-Azetidin-3-ylmethyl-8-chloro-benzo[4,5]furo[3,2-d]pyrimidine-2,4-diamine trifluoroacetic acid salt], the Ki worked out at 1820 nM.
For `COc1cccc2oc3c(N4C[C@@H]5C[C@H]4CN5)nc(N)nc3c12` [Example 85, (S,S)-4-(2,5-Diaza-bicyclo[2.2.1]hept-2-yl)-9-methoxy-benzo[4,5]furo[3,2-d]pyrimidin-2-ylamine trifluoroacetic acid salt], the inhibition constant (Ki) is over 10000 nM.
The same measure, in the same setting: then `NC[C@@H]1CCN(c2nc(N)nc3c2oc2ccc(Cl)cc23)C1` [Example 26, (S)-4-(3-Aminomethyl-pyrrolidin-1-yl)-8-chloro-benzo[4,5]furo[3,2-d]pyrimidin-2-ylamine trifluoroacetic acid salt], with 90 nM.
With `CN1CCN(c2nc(N)nc3c2sc2cc(Cl)ccc23)CC1` [Example 63, 7-Chloro-4-(4-methyl-piperazin-1-yl)-benzo[4,5]thieno[3,2-d]pyrimidin-2-ylamine trifluoroacetic acid salt], the inhibition constant (Ki) turned out to be 19 nM.
Still for that read-out and setting: then `CN[C@@H]1CCN(c2nc(N)nc3c2sc2ccc(F)cc23)C1` [Example 76, (R)-8-Fluoro-4-(3-methylamino-pyrrolidin-1-yl)-benzo[4,5]thieno[3,2-d]pyrimidin-2-ylamine trifluoroacetic acid salt], with 32 nM; and `Nc1nc(N2CCNCC2)c2oc3ccc(Cl)c(Cl)c3c2n1` [Example 104, 8,9-Dichloro-4-piperazin-1-yl-benzo[4,5]furo[3,2-d]pyrimidin-2-ylamine trifluoroacetic acid salt], with 61 nM.
The same measure, in the same setting: the figure for `Nc1nc(N2CCC[C@H](N)C2)c2oc3ccc(F)c(F)c3c2n1` [Example 147, (S)-4-(3-Amino-piperidin-1-yl)-8,9-difluoro-benzo[4,5]furo[3,2-d]pyrimidin-2-ylamine trifluoroacetic acid salt] is over 10000 nM; for `CN[C@H]1CCCN(c2nc(N)nc3c2oc2ccc(Cl)cc23)C1` [Example 74, (S)-8-Chloro-4-(3-methylamino-piperidin-1-yl)-benzo[4,5]furo[3,2-d]pyrimidin-2-ylamine citrate salt] it is 216 nM; for `CN1CCN(c2nc(N)nc3c2sc2ccc(Br)cc23)CC1` [Example 50, 8-Bromo-4-(4-methyl-piperazin-1-yl)-benzo[4,5]thieno[3,2-d]pyrimidin-2-ylamine hydrochloride salt] it is 1 nM.
The same measure, in the same setting: then `Nc1nc(N2CC(N)C2)c2oc3ccc(F)c(F)c3c2n1` [Example 150, 4-(3-Amino-azetidin-1-yl)-8,9-difluoro-benzo[4,5]furo[3,2-d]pyrimidin-2-ylamine trifluoroacetic acid salt], with 5380 nM; and `Nc1nc(N2CC(N)C2)c2oc3cccc(F)c3c2n1` [Example 138, 4-(3-Amino-azetidin-1-yl)-9-fluoro-benzo[4,5]furo[3,2-d]pyrimidin-2-ylamine trifluoroacetic acid salt], with over 10000 nM; and `Nc1nc(N2CCCNCC2)c2oc3c(Cl)cc(Cl)cc3c2n1` [Example 32, 6,8-Dichloro-4-[1,4]diazepan-1-yl-benzo[4,5]furo[3,2-d]pyrimidin-2-ylamine trifluoroacetic acid salt], with 160 nM.

Broadly, the Ki is a dissociation constant, usually derived from enzyme kinetics or from competition with a known ligand.
